According to publication PMC10672942 (2023):

Assays:
[1] = test system: p(dAdT)2 (DNA, polymer) AT; test: fluorescence titration; details: Na+ (sodium cacodylate 50 mM); pH 7.0, 25 °C; Scatchard fit, fixed n = 0.3; per base
pApU (RNA, polymer) A/U [2] = test: fluorescence titration; details: Na+ (sodium cacodylate 50 mM); pH 7.0, 25 °C; Scatchard fit, fixed n = 0.3; per base
[3] = test system: p(dGdC)2 (DNA, polymer) GC; test: fluorescence titration; details: Na+ (sodium cacodylate 50 mM); pH 7.0, 25 °C; Scatchard fit, fixed n = 0.3; per base
pApU (RNA, polymer) A/U [4] = test: UV melting at 260 nm; details: Na+ (sodium cacodylate 50 mM); pH 7.0; r = 0.3 [peptide]/[phosphate], polynucleotide 2.0 × 10^-5 M; free Tm 48.9 °C; per base
[5] = test system: ds-dA10-dT10 (oligoAT10) (DNA, duplex) AAAAAAAAAA/TTTTTTTTTT; test: HPLC after irradiation at 300 nm; details: ammonium acetate 100 mM; covalent; photoalkylation via quinone methide, 15 and 60 min, pH 7.0

| logKa [1] | logKa (pApU (RNA, polymer) A/U [2]) | logKa [3] | ΔTm (pApU (RNA, polymer) A/U [4]) [°C] | binding [5] | Structure (SMILES) |
| --- | --- | --- | --- | --- | --- |
| > 7 | 6.8 | 6.7 | 1.9 ± 0.6 |  | CN(C)Cc1cc(C[C@H](NC(=O)[C@@H](N)CNC(=O)c2ccc3ccc4cccc5ccc2c3c45)C(=O)OCc2ccccc2)ccc1O |
| 6.8 | 6.9 | 6.6 | 1.4 ± 0.2 | yes | CN(C)Cc1cc(C[C@H](NC(=O)[C@@H](N)CCCCNC(=O)c2ccc3ccc4cccc5ccc2c3c45)C(=O)OCc2ccccc2)ccc1O |
